Measured values taken from publication PMC9116245, “New 1,2,3-triazole linked ciprofloxacin-chalcones induce DNA damage by inhibiting human topoisomerase I& II and tubulin polymerization” (Journal of Enzyme Inhibition and Medicinal Chemistry, 2022).

Tests used:
Human topoisomerase I = biological target: T1, Human topoisomerase I (Homo sapiens, UniProt P11387); assay: DNA relaxation assay (gel electrophoresis); format: biochemical; conditions: compounds at their IC50 values
T1 construct: purchased Topogen Inc., USA TG-1015
T1 sequence (P11387 1-765): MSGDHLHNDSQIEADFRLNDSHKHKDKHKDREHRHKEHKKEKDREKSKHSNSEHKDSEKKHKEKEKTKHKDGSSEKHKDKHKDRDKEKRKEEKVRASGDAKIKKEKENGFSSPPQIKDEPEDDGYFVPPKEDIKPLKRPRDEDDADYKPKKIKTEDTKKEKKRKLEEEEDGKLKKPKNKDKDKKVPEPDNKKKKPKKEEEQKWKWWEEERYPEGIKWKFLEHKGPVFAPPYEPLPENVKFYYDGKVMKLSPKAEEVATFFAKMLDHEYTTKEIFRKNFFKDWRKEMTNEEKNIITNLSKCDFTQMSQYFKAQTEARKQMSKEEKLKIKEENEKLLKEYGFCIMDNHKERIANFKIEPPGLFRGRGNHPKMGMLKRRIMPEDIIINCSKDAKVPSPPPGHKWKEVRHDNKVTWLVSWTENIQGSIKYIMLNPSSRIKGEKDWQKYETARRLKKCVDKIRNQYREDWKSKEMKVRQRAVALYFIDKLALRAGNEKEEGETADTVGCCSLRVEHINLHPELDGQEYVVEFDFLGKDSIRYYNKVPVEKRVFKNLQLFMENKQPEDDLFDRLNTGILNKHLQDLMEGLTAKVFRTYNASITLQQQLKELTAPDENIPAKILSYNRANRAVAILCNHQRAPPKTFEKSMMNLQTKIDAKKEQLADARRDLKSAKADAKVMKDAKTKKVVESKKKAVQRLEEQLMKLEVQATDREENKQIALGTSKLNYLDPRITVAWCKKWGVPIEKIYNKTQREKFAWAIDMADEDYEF
Experimental: Based on our design, we hypothesised that the new CP hybrids 4a-j could act as multi-target ligands that can block the catalytic activity of topoisomerases I (Topo-I), topoisomerases (Topo-II), and inhibit tubulin polymerisation as possible targets for the anti-proliferative activity. First, the Topo-I activity was tested by the DNA relaxation assay. The supercoiled plasmid has been utilised as a substrate in the relaxation assay to study the inhibition of DNA Topo-I activity. […] Two different assays were used to examine the inhibitory activity of IC50 of the CP hybrids against Human topoisomerase I. Firstly; Gel electrophoresis-based assay (DNA relaxation assay) was performed following the manufacturer's protocol (TG-1015, Topogen Inc., USA). Secondly, the inhibitory activity of compounds 4a, 4b, 4e, 4i, 4j, and camptothecin to human topoisomerase I was analysed by Human DNA Topoisomerase I Assay Kit (ProFoldin, Hudson, MA, USA) with recombinant human DNA topoisomerase I (Sigma-Aldrich) according to the manufacturer’s protocol.

tubulin polymerisation = assay: Tubulin immunofluorescence microscopy in HCT116 cells; format: cell-based, human; conditions: HCT116, IC50 of compound, 36 h
Experimental: (§1) The process of tubulin polymerisation in the cells is important for the completion of mitosis and is targeted for cancer treatment. It has been reported that the suppression of tubulin polymerisation will arrest the cells at the G2/M and it eventually leads to cell death. To test the tubulin-disruptive effect of the CP hybrids, HCT116 cells were analysed by immunocytochemistry. HCT116 cells were incubated for 36 h with IC50 of the CP hybrids (4a, 4b, 4e, 4i, and 4j), nocodazole (a well-known tubulin polymerisation inhibitor, as a positive control), DMSO or Paclitaxel (a well-known tubulin polymerisation inducer, as a negative control), and tubulin was visualised by immunofluorescence microscopy. An antibody for α-tubulin was used. […] Moreover, a Western blot was performed to verify the tubulin polymerisation inhibition ability of the synthesised compounds (Figure 8(B)). The level of polymerised tubulin was decreased in HCT116 cells treated with IC50 values of CP hybrids 4a, 4b, 4e, 4i, 4j, or nocodazole.
(§2) HCT116 cells were cultured and treated with the IC50 of the potent compounds (4a, 4b, 4e, 4i, and 4j) or DMSO (control), fixed, permeabilized, and they were incubated with either γH2AX or α-tubulin antibody as the reported procedure in the literature. Confocal images were captured using a Confocal Microscope with a 63X objective. All images were processed using ImageJ software. See Supplementary Appendix A.

polymerised tubulin = assay: Western blot of polymerised tubulin in HCT116 cells; format: cell-based, human; conditions: HCT116, IC50 values of compounds
Experimental: as §1
(§3) Western blotting analysis for HCT116 cells was performed according to the reported procedure in the literature[77–79] to determine the effects of CP hybrids; 4a, 4b, 4e, 4i, and 4j on the expression of polymerised tubulin, γH2AX, p-ATR, p-CHK1, and p-Cdc25C by using the appropriate antibody. See Supplementary Appendix A.

γH2AX [1] = assay: γH2AX immunofluorescence in HCT116 cells; format: cell-based, human; conditions: HCT116, IC50 of compound
Excerpt: (§4) DNA damage is a major reason for inhibiting proliferation and inducing cytotoxicity in cancer cells as well as the main downstream cascade for the Topo-I, Top-II, and tubulin polymerisation inhibition. The phosphorylation of the histone H2AX always occurs after DNA damage forming double-stranded breaks (DSBs). Therefore, we tested the capability of the potent prepared compounds to trigger DNA double strand breaks through detection of the phosphorylation of γH2AX using two different techniques, Immunofluorescence, and western blotting.
as §2

γH2AX [2] = assay: γH2AX western blotting in HCT116 cells; format: cell-based, human; conditions: HCT116, IC50 of compound, versus control cells
Excerpt: as §4, §3

[3] = biological target: T2, recombinant human DNA topoisomerase I (Homo sapiens, UniProt P11387); assay: Human DNA Topoisomerase I Assay Kit (ProFoldin); format: biochemical; conditions: compounds at their IC50 values, reference camptothecin
T2 construct: purchased Sigma-Aldrich
T2 sequence (P11387 1-765): T1 sequence (P11387 1-765)

Topo IIα = biological target: T3, Topo IIα (Homo sapiens, UniProt P11388); assay: Human Topoisomerase II assay kit (TG1001); format: biochemical; conditions: 10 µM
T3 construct: purchased Topogen Inc. TG1001
Experimental: Second, the inhibitory activity of Topo IIα was evaluated for compounds 4a, 4b, 4e, 4i, and 4j utilising Human Topoisomerase II assay kit (TG1001, Topogen Inc.). […] The above results are compatible with our design of these hybrids as Top-II inhibitors.
The inhibitory activity of the selected ciprofloxacin hybrids on human Top-II was tested using a Human Topoisomerase II assay kit (TG1001, Topogen Inc.). In this assay, 1% agarose gel was used, and the compounds were tested at two different concentrations, 10 and 100 µM. Also, etoposide was used as a positive control in this experiment. The assay was performed according to the manufacturer’s protocol. The image of the electrophoretic gel was captured using an imaging system (iBright-CL1500, Thermo Fisher Scientific).

T3 sequence (P11388 whole entry): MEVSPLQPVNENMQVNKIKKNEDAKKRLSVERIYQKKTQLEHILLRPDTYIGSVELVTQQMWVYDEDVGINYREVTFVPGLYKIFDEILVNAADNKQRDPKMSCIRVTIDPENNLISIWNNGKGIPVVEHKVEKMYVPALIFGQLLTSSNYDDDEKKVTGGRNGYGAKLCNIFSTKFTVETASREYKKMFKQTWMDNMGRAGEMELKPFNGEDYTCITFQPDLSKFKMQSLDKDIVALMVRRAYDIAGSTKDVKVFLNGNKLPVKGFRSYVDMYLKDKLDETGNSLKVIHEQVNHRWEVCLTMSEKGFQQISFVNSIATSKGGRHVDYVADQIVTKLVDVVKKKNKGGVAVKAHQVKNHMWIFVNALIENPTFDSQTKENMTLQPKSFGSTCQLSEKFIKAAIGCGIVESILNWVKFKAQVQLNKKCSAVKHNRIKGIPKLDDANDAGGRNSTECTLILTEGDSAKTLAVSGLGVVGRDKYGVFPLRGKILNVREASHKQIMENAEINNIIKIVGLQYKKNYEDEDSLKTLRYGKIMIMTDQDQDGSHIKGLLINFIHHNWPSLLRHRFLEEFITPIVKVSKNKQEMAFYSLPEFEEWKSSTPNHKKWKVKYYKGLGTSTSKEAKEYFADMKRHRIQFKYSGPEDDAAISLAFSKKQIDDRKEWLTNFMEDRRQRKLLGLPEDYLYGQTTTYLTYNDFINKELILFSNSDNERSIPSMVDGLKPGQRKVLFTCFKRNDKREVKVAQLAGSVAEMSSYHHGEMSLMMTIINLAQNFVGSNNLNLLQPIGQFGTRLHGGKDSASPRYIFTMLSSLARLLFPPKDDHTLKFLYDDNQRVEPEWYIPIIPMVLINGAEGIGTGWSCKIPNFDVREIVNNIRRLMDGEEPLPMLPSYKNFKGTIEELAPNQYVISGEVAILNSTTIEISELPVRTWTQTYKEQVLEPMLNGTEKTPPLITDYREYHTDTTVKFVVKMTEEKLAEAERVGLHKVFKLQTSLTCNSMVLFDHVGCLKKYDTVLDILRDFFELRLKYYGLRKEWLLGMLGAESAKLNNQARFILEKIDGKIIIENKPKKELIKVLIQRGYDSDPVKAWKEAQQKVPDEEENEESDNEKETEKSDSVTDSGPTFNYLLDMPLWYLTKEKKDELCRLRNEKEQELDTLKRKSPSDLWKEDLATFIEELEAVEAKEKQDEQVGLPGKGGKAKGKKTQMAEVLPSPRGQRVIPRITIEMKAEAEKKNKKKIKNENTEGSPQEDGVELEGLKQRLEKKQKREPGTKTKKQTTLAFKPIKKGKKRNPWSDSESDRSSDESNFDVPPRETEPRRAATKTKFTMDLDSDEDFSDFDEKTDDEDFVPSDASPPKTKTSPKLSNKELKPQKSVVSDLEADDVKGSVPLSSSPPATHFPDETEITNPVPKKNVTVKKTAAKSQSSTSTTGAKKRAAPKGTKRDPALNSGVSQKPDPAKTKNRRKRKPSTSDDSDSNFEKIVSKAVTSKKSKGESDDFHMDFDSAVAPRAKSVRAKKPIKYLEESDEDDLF

Compound	melting point	Topo-I catalytic activity, DNA relaxation (Human topoisomerase I)	tubulin polymerisation, morphological changes by immunofluorescence (tubulin polymerisation)	level of polymerised tubulin, Western blot (polymerised tubulin)	γH2AX foci formation (γH2AX [1])	γH2AX protein expression, western blotting (γH2AX [2])	Top-I inhibitory activity, enzyme assay kit [3]	Topo-II inhibitory activity (Topo IIα)
CN(C)c1ccc(/C=C/C(=O)c2ccc(-n3cc(CN4CCN(c5cc6c(cc5F)c(=O)c(C(=O)O)cn6C5CC5)CC4)nn3)cc2)cc1 [Compound 4h, (E)-1-cyclopropyl-7–(4-((1–(4-(3-(4-(dimethylamino)phenyl)acryloyl)phenyl)-1H-1,2,3-triazol-4-yl)methyl)piperazin-1-yl)-6-fluoro-4-oxo-1,4-dihydroquinoline-3-carboxylic acid]	177 to 179 °C							
O=C(/C=C/c1cccc(Cl)c1)c1ccc(-n2cc(CN3CCN(c4cc5c(cc4F)c(=O)c(C(=O)O)cn5C4CC4)CC3)nn2)cc1 [Compound 4b, (E)-7-(4-((1–(4-(3-(3-chlorophenyl)acryloyl)phenyl)-1H-1,2,3-triazol-4-yl)methyl)piperazin-1-yl)-1-cyclopropyl-6-fluoro-4-oxo-1,4-dihydroquinoline-3-carboxylic acid]		could inhibit Topo-I catalytic activity	significant tubulin polymerisation inhibition	decreased	induced γH2AX foci formation	increases in the γH2AX protein expression		
Cc1ccc(/C=C/C(=O)c2ccc(-n3cc(CN4CCN(c5cc6c(cc5F)c(=O)c(C(=O)O)cn6C5CC5)CC4)nn3)cc2)cc1 [Compound 4f, (E)-1-cyclopropyl-6-fluoro-4-oxo-7-(4-((1-(4-(3-(p-tolyl)acryloyl)phenyl)-1H-1,2,3-triazol-4-yl)methyl)piperazin-1-yl)-1,4-dihydroquinoline-3-carboxylic acid]	259 to 261 °C							
O=C(/C=C/c1ccc(Br)cc1)c1ccc(-n2cc(CN3CCN(c4cc5c(cc4F)c(=O)c(C(=O)O)cn5C4CC4)CC3)nn2)cc1 [Compound 4d, (E)-7-(4-((1-(4-(3-(4-bromophenyl)acryloyl)phenyl)-1H-1,2,3-triazol-4-yl)methyl)piperazin-1-yl)-1-cyclopropyl-6-fluoro-4-oxo-1,4-dihydroquinoline-3-carboxylic acid]	247 to 249 °C							
COc1cc(/C=C/C(=O)c2ccc(-n3cc(CN4CCN(c5cc6c(cc5F)c(=O)c(C(=O)O)cn6C5CC5)CC4)nn3)cc2)cc(OC)c1OC [Compound 4j, (E)-1-cyclopropyl-6-fluoro-4-oxo-7–(4-((1–(4-(3-(3,4,5-trimethoxyphenyl)acryloyl)phenyl)-1H-1,2,3-triazol-4-yl)methyl)piperazin-1-yl)-1,4-dihydroquinoline-3-carboxylic acid]		could inhibit Topo-I catalytic activity	significant tubulin polymerisation inhibition	decreased	induced γH2AX foci formation	increases in the γH2AX protein expression	less potent Top-1 inhibitor	stronger inhibitory activity than 4b, 4i, and ETO
COc1ccc(/C=C/C(=O)c2ccc(-n3cc(CN4CCN(c5cc6c(cc5F)c(=O)c(C(=O)O)cn6C5CC5)CC4)nn3)cc2)cc1OC [Compound 4i, (E)-1-cyclopropyl-7-(4-((1-(4-(3–(3,4-dimethoxyphenyl)acryloyl)phenyl)-1H-1,2,3-triazol-4-yl)methyl)piperazin-1-yl)-6-fluoro-4-oxo-1,4-dihydroquinoline-3-carboxylic acid]		could inhibit Topo-I catalytic activity	significant tubulin polymerisation inhibition	decreased	induced γH2AX foci formation	increases in the γH2AX protein expression		
COc1ccc(/C=C/C(=O)c2ccc(-n3cc(CN4CCN(c5cc6c(cc5F)c(=O)c(C(=O)O)cn6C5CC5)CC4)nn3)cc2)cc1 [Compound 4g, (E)-1-Cyclopropyl-6-fluoro-7-(4-((1-(4-(3-(4-methoxyphenyl)acryloyl)phenyl)-1H-1,2,3-triazol-4-yl)methyl)piperazin-1-yl)-4-oxo-1,4-dihydroquinoline-3-carboxylic acid]	254 to 257 °C							
O=C(/C=C/c1ccc(F)cc1)c1ccc(-n2cc(CN3CCN(c4cc5c(cc4F)c(=O)c(C(=O)O)cn5C4CC4)CC3)nn2)cc1 [Compound 4e, (E)-1-cyclopropyl-6-fluoro-7–(4-((1–(4-(3-(4-fluorophenyl)acryloyl)phenyl)-1H-1,2,3-triazol-4-yl)methyl)piperazin-1-yl)-4-oxo-1,4-dihydroquinoline-3-carboxylic acid]		could inhibit Topo-I catalytic activity	significant tubulin polymerisation inhibition	decreased	induced γH2AX foci formation	increases in the γH2AX protein expression	comparable to camptothecin	stronger inhibitory activity than 4b, 4i, and ETO
O=C(/C=C/c1ccc(Cl)cc1)c1ccc(-n2cc(CN3CCN(c4cc5c(cc4F)c(=O)c(C(=O)O)cn5C4CC4)CC3)nn2)cc1 [Compound 4c, (E)-7-(4-((1-(4-(3-(4-chlorophenyl)acryloyl)phenyl)-1H-1,2,3-triazol-4-yl)methyl)piperazin-1-yl)-1-cyclopropyl-6-fluoro-4-oxo-1,4-dihydroquinoline-3-carboxylic acid]	257 to 259 °C							
